Assay in all cases: NCI anticancer screen, dose series, 48 h
Experiment [1] concerns LXFL 529.
Experiment [2] relates to XF498.
Experiment [3] deals with DMS-114.
Experiment [4] relates to RXF 631.
Experiment [5] deals with HOP-18.
Experiment [6] relates to DMS-273.
Experiment [7] concerns KM-20L2.
Experiment [8] deals with DLD-1.
Experiment [9] concerns SNB-78.

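48-hour exposure; five concentrations; linearly interpolated endpoints. At the GI50, growth is halved.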 Calls of active or inactive are those of the source. Cut-off read from the data, not from the text of the source: active = GI50 up to about 1.1 µM and inactive = higher.

In the case of `CC(=O)C1C(=O)C(=O)N(CCN2C(=O)C(=O)C(C(C)=O)C2=O)C1=O` (stereo unspecified), the GI50 in experiment [1], in experiment [2], in experiment [3], in experiment [4], in experiment [5] and in experiment [6] was > 100 µM (inactive) throughout. For the same compound, the GI50 in experiment [7] is > 100 µM (inactive).
With `CC1(C)OCN(c2ccc(N3CCOCC3)cc2)Cn2c1nc1ccccc12`, the GI50 was > 100 µM (inactive) in [1]; > 100 µM (inactive) in experiment [3]; > 100 µM (inactive) in [8]; > 100 µM (inactive) in [5]; > 100 µM (inactive) in [9]; 80.9 µM (inactive) in [6]. For the same compound, the GI50 in experiment [7] is > 100 µM (inactive).
Turning to `O=[N+]([O-])c1nccn1COCCI`, the GI50 in experiment [1], in experiment [2], in experiment [3], in [8], in [9] and in [6] was > 100 µM (inactive) throughout. Moreover, the GI50 in [7] was > 100 µM (inactive).
For the compound `O=C1[C@H]2ON(c3ccccc3)C(c3ccccc3)[C@H]2C(=O)N1c1ccc(Cc2ccc(N3C(=O)[C@@H]4ON(c5ccccc5)C(c5ccccc5)[C@@H]4C3=O)cc2)cc1` (stereo partly specified), the GI50 in experiment [1], in experiment [3], in experiment [8], in experiment [4], in [5] and in [9] was > 100 µM (inactive) throughout. The GI50 in [6] and in [7] was > 100 µM (inactive) throughout.
For the compound `NS(=O)(=O)c1ccc(NC(=O)c2cccc3c(=O)c4ccccc4[nH]c23)cc1`, the GI50 in [1] is 30.6 µM (inactive); in [2], 11.5 µM (inactive); in [3] it was 74.8 µM (inactive); in experiment [8] it was > 100 µM (inactive); in [5], > 100 µM (inactive); in experiment [9] it was 49.3 µM (inactive). Also, the figures for the GI50 in [6] and in experiment [7] were 70.1 µM (inactive) and 38.6 µM (inactive), respectively.
Regarding `COc1cccc(N2C(=O)[C@H]3[C@H]4CC(C(C)(C)C)CC[C@H]4c4c([nH]c5ccccc45)[C@H]3C2=O)c1` (stereo partly specified), the GI50 is 20 µM (inactive) in experiment [1]; 17.7 µM (inactive) in experiment [3]; 22.5 µM (inactive) in [8]; 17.6 µM (inactive) in experiment [4]; 14.5 µM (inactive) in experiment [9]; 18.3 µM (inactive) in experiment [6].
With `CC1(Cl)C(=O)NC(=O)N([C@H]2C[C@H](O)[C@@H](CO)O2)C1N=[N+]=[N-]` (stereo partly specified), the GI50 was > 100 µM (inactive) in [1]; > 100 µM (inactive) in experiment [2]; > 94.8 µM (inactive) in experiment [3]; > 100 µM (inactive) in experiment [8]; > 100 µM (inactive) in experiment [4]; > 100 µM (inactive) in experiment [5]. Also, the GI50 in experiment [9], in experiment [6] and in experiment [7] was > 100 µM (inactive) each time.
On to `CCc1c(OC(C)=O)c2c(NC3OC(COC(C)=O)C(OC(C)=O)C(OC(C)=O)C3OC(C)=O)nc(OC)nc2oc1=O` (stereo unspecified), for which the GI50 in experiment [1], in experiment [2], in experiment [3], in [8], in [5] and in [9] was > 100 µM (inactive) each time. Moreover, the GI50 in [6] and in experiment [7] was > 100 µM (inactive) throughout.
With `CC(C)N(C(=O)C12C3C4C5C3C1(C(=O)O)C5C42)C(C)C` (stereo unspecified), the GI50 in experiment [1], in experiment [2], in experiment [3], in [8], in [4] and in [9] was > 100 µM (inactive) each time. In addition, the GI50 in experiment [6] and in [7] was > 100 µM (inactive) throughout.
Take `O=C(O/N=C1/CCCC/C1=C\c1ccccc1)c1ccc(Cl)cc1`: the GI50 was 48 µM (inactive) in [1]; 0.439 µM (active) in experiment [2]; > 100 µM (inactive) in experiment [8]; > 100 µM (inactive) in [5]; > 100 µM (inactive) in experiment [9]; > 100 µM (inactive) in experiment [6]. In addition, the GI50 in [7] is > 100 µM (inactive).
Consider `CC(=O)c1cc2c3c(c1)c1cc4c(cc1c(=O)n3CC2)OCO4`, for which the GI50 is 10.4 µM (inactive) in experiment [1]; > 100 µM (inactive) in [2]; 37.7 µM (inactive) in experiment [3]; 15.2 µM (inactive) in experiment [8]; 21.5 µM (inactive) in experiment [4]; 13.5 µM (inactive) in experiment [5]. Besides, the figures for the GI50 in experiment [9], in experiment [6] and in [7] were > 100 µM (inactive), 7 µM (inactive) and 23.7 µM (inactive), respectively.
Turning to `C=C1C(=O)C23C(O)C1CC[C@H]2C12CCCC(C)(COC(C)=O)[C@H]1[C@H](O)[C@]3(O)OC2` (stereo partly specified), the GI50 in [1] is 0.427 µM (active); in experiment [2], 1.4 µM (inactive); in experiment [3] it was 1.87 µM (inactive); in experiment [8], 0.577 µM (active); in [5], 1.27 µM (inactive); in experiment [9], 0.653 µM (active). Further, the GI50 in experiment [6] is 1.94 µM (inactive); in experiment [7], 1.56 µM (inactive).
In the case of `Cc1ccc(NC(=O)C(=O)C2NC(=S)NC2=O)c([N+](=O)[O-])c1` (stereo unspecified), the GI50 in experiment [1], in experiment [2], in experiment [3], in [8], in experiment [5] and in experiment [9] was > 100 µM (inactive) throughout. Moreover, the GI50 in experiment [6] and in experiment [7] was > 100 µM (inactive) in each case.
For the compound `CC(C)[C@@H]1C=C(c2ccccc2)c2ccccc2C1C(C#N)(C#N)C(C)C` (stereo partly specified), the GI50 was > 100 µM (inactive) in experiment [1]; 45 µM (inactive) in experiment [2]; 97.7 µM (inactive) in [3]; > 100 µM (inactive) in experiment [8]; > 100 µM (inactive) in experiment [5]; > 100 µM (inactive) in experiment [9]. The results for the GI50 in [6] and in [7] were 48.6 µM (inactive) and > 100 µM (inactive), respectively.
With `c1cnc2nc3n(c2c1)CSC3`, the GI50 in [1], in [2], in experiment [3], in [8], in experiment [9] and in [7] was > 100 µM (inactive) each time.
On to `COc1ccc(CC2NCCc3c2[nH]c2ccccc32)cc1` (stereo unspecified), for which the GI50 in experiment [1] is 62.4 µM (inactive); in experiment [2], 16.9 µM (inactive); in [3], 33.1 µM (inactive); in [8] it was > 100 µM (inactive); in experiment [4], 25.3 µM (inactive); in experiment [9], 70.6 µM (inactive). Moreover, the GI50 in [6] was 26.5 µM (inactive); in experiment [7] it was 33.7 µM (inactive).
For `CCOC(=O)Nc1ccc(S(=O)(=O)I)cc1.CCOC(=O)Nc1ccc(S(=O)(=O)I)cc1.CN(C=O)C1=C(N(C)C=O)C(N(C)C=O)=C(N(C)C=O)C(=O)C1=O`, the GI50 in experiment [1], in experiment [2], in experiment [3], in experiment [4], in [5] and in experiment [9] was > 100 µM (inactive) throughout. For the same compound, the GI50 in experiment [7] is > 100 µM (inactive).
In the case of `Cc1ccc(Nc2nc3c(s2)C(=O)c2ccccc2C3=O)cc1`, the GI50 in [1] is 1.63 µM (inactive); in experiment [2], 1.94 µM (inactive); in experiment [3] it was 1.52 µM (inactive); in experiment [8] it was 2.07 µM (inactive); in experiment [4] it was 1.95 µM (inactive); in experiment [5], 1.13 µM (inactive). Moreover, the GI50 in experiment [9] was 2.49 µM (inactive); in [6], 1.95 µM (inactive); in experiment [7], 17.5 µM (inactive).
For the compound `O=C(/C(=C/c1ccccc1)c1ccccc1)N1c2ccccc2CC1c1c[nH]c2ccccc12` (stereo unspecified), the GI50 in [1] is 8.3 µM (inactive); in experiment [2], 3.05 µM (inactive); in [3], 5.7 µM (inactive); in experiment [8], 53.2 µM (inactive); in [9] it was 9.2 µM (inactive); in experiment [6] it was 7.83 µM (inactive). For the same compound, the GI50 in experiment [7] is 26.8 µM (inactive).
As to `C/C(CN1C(=O)c2ccccc2C1=O)=N\NS(=O)(=O)c1ccc(Cl)cc1`, the GI50 in experiment [1], in experiment [2], in experiment [8], in experiment [4], in [5] and in experiment [9] was > 100 µM (inactive) throughout. Besides, the GI50 in [6] and in [7] was > 100 µM (inactive) throughout.
Regarding `Cc1nc2ccccc2c(=O)n1/N=C(\N=N\c1cc(Cl)ccc1Cl)c1cccc(-c2ccco2)c1`, the GI50 was 41.4 µM (inactive) in experiment [3]; 87.9 µM (inactive) in [8]; > 100 µM (inactive) in experiment [4]; > 100 µM (inactive) in [5]; 63.2 µM (inactive) in experiment [6].
Take `COc1c(C2=NC(C(C)C)CO2)ccc2ccccc12` (stereo unspecified): the GI50 in experiment [1] is 19.2 µM (inactive); in experiment [2], 30.4 µM (inactive); in experiment [8], 16.1 µM (inactive); in experiment [4], 39.5 µM (inactive); in [9] it was 79.4 µM (inactive); in experiment [6], 23 µM (inactive). Also, the GI50 in experiment [7] is 42.1 µM (inactive).
As to `CC(=O)OC12CCCCC1C1(CCCC1)NC2=O` (stereo unspecified), the GI50 in experiment [1], in [2], in experiment [3], in [8], in [5] and in experiment [9] was > 100 µM (inactive) in each case. In experiment [7], the GI50 was > 100 µM (inactive).
In the case of `Cc1ccccc1-n1c2nc(=O)n(C)c(=O)c-2nc2ccccc21`, the GI50 in experiment [1] was 12.5 µM (inactive); in experiment [2] it was 17.5 µM (inactive); in experiment [3], 4.9 µM (inactive); in experiment [8], 16.7 µM (inactive); in experiment [4], 14.6 µM (inactive); in experiment [5], 10.5 µM (inactive). The figures for the GI50 in [9], in [6] and in experiment [7] were 18.6 µM (inactive), 10.9 µM (inactive) and 7.35 µM (inactive), respectively.

The values above are taken from ChEMBL document CHEMBL1201862, “PubChem BioAssay data set” (2004).
